The test system of one test is anemic Wistar rats. As to the kind of experiment: Prevention of iron absorption in anemic rats. In kind it is in vivo, rat. The note with it: 1 h before 0.5 mg/kg ferrous sulfate. As for the experimental part:
To assess the in vivo efficacy of ferroportin (Fpn) inhibitors to block iron absorption, a series of Fpn inhibitors were tested in an anemic rat model for iron absorption. Wistar rats (3-4 weeks old, n=5, Janvier Labs) were fed a low iron diet (Provimi-Kliba, Cat. 2039) until their hemoglobin (Hb) values reach 7-8 g/dl one day before dosing of the Fpn inhibitor compounds. One hour before oral application of 0.5 mg/kg of ferrous sulfate, test compounds formulated in methyl cellulose or Cremophor were dosed orally. Blood samples were taken by tail vein puncture one hour before administration of iron (−1 h), immediately after dosing of the Fpn inhibitors (0 h) and one hour (1 h), three hours (3 h) and occasionally up to 6 hours (6 h) after dosing of the test compounds. Serum iron levels were measured (Abbott Diagnostics, Cat. 6K95) and inhibition of the rise of serum iron three hours after dosing of the test compound was calculated as a measure for efficacy of the Fpn inhibitors in blocking iron absorption (Table 7).

In another test the target is T1, ferroportin (Fpn) (Mus musculus, UniProt Q9JHI9).
T1 construct: host or cells: J774 mouse macrophage cell line, Fe(III)-NTA induced
T1 sequence (Q9JHI9 1-570): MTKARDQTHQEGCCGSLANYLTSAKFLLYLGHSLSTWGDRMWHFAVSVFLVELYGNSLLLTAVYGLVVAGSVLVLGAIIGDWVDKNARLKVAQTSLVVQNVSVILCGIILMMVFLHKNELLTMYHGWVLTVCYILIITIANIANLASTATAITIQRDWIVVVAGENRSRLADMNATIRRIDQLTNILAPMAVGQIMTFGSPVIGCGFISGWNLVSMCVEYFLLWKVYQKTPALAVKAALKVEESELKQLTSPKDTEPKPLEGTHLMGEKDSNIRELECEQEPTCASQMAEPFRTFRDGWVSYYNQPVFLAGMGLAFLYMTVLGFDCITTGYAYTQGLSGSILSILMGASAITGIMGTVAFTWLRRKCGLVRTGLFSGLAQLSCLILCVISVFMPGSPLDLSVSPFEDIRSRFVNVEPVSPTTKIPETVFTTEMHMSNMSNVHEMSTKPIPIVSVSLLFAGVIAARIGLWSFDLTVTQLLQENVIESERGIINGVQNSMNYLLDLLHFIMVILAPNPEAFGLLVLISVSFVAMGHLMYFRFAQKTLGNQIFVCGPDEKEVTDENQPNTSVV
As to the kind of experiment: Hepcidin Internalization Assay (J774). The class given is cell-based. Conditions: average (AVE) of multiple measurements; TMR-hepcidin 25 nM, J774 cells. The source says: This cellular assay allows quantification of the binding of hepcidin to ferroportin (Fpn) through microscopic detection of internalization of a fluorescently labeled hepcidin into J774 cells. […] Binding of hepcidin to Fpn triggers internalization and degradation of both hepcidin and Fpn. However, the TMR (6-carboxytetramethylrhodamine) fluorophore attached to hepcidin remains associated with the cell after degradation of the hepcidin peptide backbone. Therefore, microscopic detection of cell-associated TMR fluorescence is a measure of hepcidin binding to Fpn and internalization of hepcidin and Fpn. If TMR-hepcidin is prevented from binding to Fpn, cellular TMR fluorescence remains low (Dürrenberger et al, 2013). The effect of small molecular weight Fpn inhibitor compounds in this assay was evaluated in vitro as described below.
After overnight incubation, cells were washed 3 times with pre-warmed DMEM w/o phenol red, 30 μl/well of DMEM w/o phenol red was added after the final wash and 10 μl/well of dilution series of test compounds were added in triplicates. […] Cells were incubated in a total volume of 50 μl at 37° C. with 5% CO2 for 2 hours, then Hoechst 33342 dye was added to a final concentration of 0.5 μg/ml to stain nuclei and further incubated for 10 min. at 37° C. with 5% CO2. Cells were washed 3 times with PBS and fixed in 100 μl of 4% paraformaldehyde in PBS for 15 min. at room temperature. After removal of the paraformaldehyde solution, cells were washed 3 times with PBS leaving 100 μl per well and the plates were sealed with foil plate seal. TMR (530-550 nm excitation/575-625 nm emission/400 ms exposure time) and Hoechst 33342 (360-370 nm excitation/420-460 nm emission/10 ms exposure time) fluorescence images were acquired using a ScanR plate imager (Olympus) with a 20× high NA objective. Four pictures were acquired per well and fluorescence channel covering ca. 1500 cells per well. The acquired image data was analysed with the ScanR image analysis software. Image analysis included detection of nuclei (Hoechst 33342 fluorescence), identification of cell-associated regions, application of a virtual channel and thresholding for rolling-ball-type background reduction, followed by application of the Sum(Mean) algorithm to measure the TMR fluorescence associated with cells as a quantitative measure for internalized TMR-hepcidin. IC50 values were calculated with the Sum(Mean) raw data using “log(inhibitor) vs. response” curve fitting of Prism 5 software (GraphPad Software Inc., version 5.02).

The test system of a further test is Hbb th3/+ mice. As to the kind of experiment: Improvement of anemia, ineffective erythropoiesis and iron overload in a mouse model of β-thalassemia intermedia. In kind it is in vivo. The note with it: hemoglobin difference to vehicle.

Marks after values point to notes of the source that are not given here.

As for `O=C(NCc1ncccc1F)c1cnc(CCNCCc2nc3ccccc3[nH]2)o1` [Example 1], the “Serum Iron Inhibition (%) at 3 h” value in the test on anemic Wistar rats (Dose 10 mg/kg oral) is listed as 42.6** %; with anemic Wistar rats (Dose 30 mg/kg oral), 64.9*** %. Also, inhibition on ferroportin (Fpn) was half-maximal at 12 nM (IC50).

For the compound `O=C(NCc1ncccc1F)c1cnc(C2CN(CCc3nc4ccccc4[nH]3)C2)o1` [Example 2], the “Correction of anemia at day 20-48” value in the test with Hbb th3/+ mice (20 mg/kg twice daily) came out at 3 g/L; in the test on Hbb th3/+ mice (60 mg/kg twice daily) it was 11 g/L. This compound registered an IC50 against ferroportin (Fpn) of 35 nM.

The compound `O=C(NCc1ncccc1F)c1csc(CCNCc2nc3ccccc3[nH]2)n1` [Example 40] came in with an IC50 on ferroportin (Fpn) of 49 nM.

Take `O=C(NCc1ncccc1F)c1cnn(CCNCCc2cc3ccccc3[nH]2)c1` [Example 277]: inhibition at ferroportin (Fpn) was half-maximal at 11 nM (IC50).

These data come from patent publication US11066399B2, “Ferroportin inhibitors” (Vifor (International) AG, priority 2015, dated 2021).
